Our source for the inhibition values is patent US20040235761A1, “Novel virus proliferaton inhibition/virucidal method and novel pyradine nucleotide/pyradine nucleoside analogue” (priority 2001, published 2004).

The structures appear in SMILES notation.

In this experiment the test system is influenza virus A/PR/8/34. Put plainly: Anti-influenza effect (plaque inhibition in MDCK cells). Format: cell-based. As to conditions: PR/8, MDCK, 72 h, read-out: Inhibition rate (plaque inhibition rate).
For the molecule `CC(=O)OC[C@H]1O[C@@H](n2ccnc(C(N)=O)c2=O)[C@H](OC(C)=O)[C@@H]1OC(C)=O` [Example 22, (2R,3R,4R,5R)-4-(acetyloxy)-2-[(acetyloxy)methyl]-5-[3-(aminocarbonyl)-2-oxo-1(2H)-pyrazinyl]tetrahydro-3-furanyl acetate], the inhibition at 100 µg/mL was 33%.
As to `CC(=O)OC[C@H]1O[C@@H](n2cc(F)nc(C(N)=O)c2=O)[C@H](OC(C)=O)[C@@H]1OC(C)=O` [Example 31, (2R,3R,4R, 5R)-4-(acetyloxy)-2-[(acetyloxy)methyl]-5-[3-(aminocarbonyl)-5-fluoro-2-oxo-1(2H)-pyrazinyl] tetrahydro-3-furanyl acetate], the inhibition at 100 µg/mL was determined as 44%.
To `NC(=O)c1nc(Cl)cn([C@@H]2O[C@H](CO)[C@@H](O)[C@H]2O)c1=O` [Reference Example 7, 6-chloro-4-[(2R,3R,4S,5R)-3,4-dihydroxy-5-(hydroxymethyl)tetrahydro-2-furanyl]-3-oxo-3,4-dihydro-2-pyrazinecarboxamide] belongs 42%.
With `Cc1cn([C@@H]2O[C@H](CO)[C@@H](O)[C@H]2O)c(=O)c(C(N)=O)n1` [Example 11, 4-[(2R,3R,4S,5R)-3,4-dihydroxy-5-(hydroxymethyl)tetrahydro-2-furanyl]-6-methyl-3-oxo-3,4-dihydro-2-pyrazinecarboxamide], the inhibition at 100 µg/mL came out at 24%.
To `CC(=O)O[C@@H]1[C@H](OC(C)=O)[C@@H](CO)O[C@H]1n1cc(F)nc(C(N)=O)c1=O` [Reference Example 12, (2R,3R,4R,5R)-4-(acetyloxy)-2-[3-(aminocarbonyl)-5-fluoro-2-oxo-1(2H)-pyrazinyl]-5-(hydroxymethyl)tetrahydro-3-furanyl acetate] belongs 78%.

As a reminder, the inhibition is the share of the control response that was lost under treatment.
